Common to all, as to type: biochemical
Test [1] deals with T1, Haspin (h) (Homo sapiens, UniProt Q8TF76).
T1 construct: purchased Eurofins (KinaseProfiler)
T1 sequence (Q8TF76 1-798): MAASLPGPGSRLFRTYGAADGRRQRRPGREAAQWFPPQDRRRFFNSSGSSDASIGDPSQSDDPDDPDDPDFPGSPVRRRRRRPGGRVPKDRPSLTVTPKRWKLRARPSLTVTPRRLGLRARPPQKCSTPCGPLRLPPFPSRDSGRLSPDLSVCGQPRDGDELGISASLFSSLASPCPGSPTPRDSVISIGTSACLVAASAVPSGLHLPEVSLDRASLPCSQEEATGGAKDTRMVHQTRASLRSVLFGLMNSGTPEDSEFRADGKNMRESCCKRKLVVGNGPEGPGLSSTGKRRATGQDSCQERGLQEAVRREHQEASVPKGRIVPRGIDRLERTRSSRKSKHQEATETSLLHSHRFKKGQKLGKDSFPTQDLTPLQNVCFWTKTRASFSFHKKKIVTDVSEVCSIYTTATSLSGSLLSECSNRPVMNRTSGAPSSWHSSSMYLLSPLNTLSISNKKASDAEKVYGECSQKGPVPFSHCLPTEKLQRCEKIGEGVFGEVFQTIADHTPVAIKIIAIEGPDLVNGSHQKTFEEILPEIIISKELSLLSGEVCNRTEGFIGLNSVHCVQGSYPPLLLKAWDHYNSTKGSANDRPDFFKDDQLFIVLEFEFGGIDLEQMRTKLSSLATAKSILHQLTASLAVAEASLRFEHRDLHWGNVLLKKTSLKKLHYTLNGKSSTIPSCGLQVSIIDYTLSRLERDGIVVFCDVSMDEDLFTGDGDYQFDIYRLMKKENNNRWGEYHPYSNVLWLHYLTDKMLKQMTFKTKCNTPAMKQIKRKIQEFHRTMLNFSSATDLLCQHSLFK
Nature of the test: radiometric kinase assay (KinaseProfiler, Eurofins), Haspin. The note with it: in vitro radiometric kinase assay, tested at 1 nM to 10 000 nM, no pre-incubation; read-out: inhibitory activities (IC50 values) Haspin. The method in brief: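 Human Haspin in 8 mM MOPS pH 7.0 with 500 µM RARTLSFAEPG, 10 mM Mg acetate and γ-33P-ATP; compound added without preincubation. Reaction ran 40 min at room temperature, then filter-bound 33P was counted. Nine concentrations from 1 to 10 000 nM gave % remaining activity versus DMSO, and IC50 came from curve fit.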

Test [2] concerns the target T2, DYRK2 (h) (Homo sapiens, UniProt Q92630).
T2 construct: purchased Eurofins (KinaseProfiler)
T2 sequence (Q92630 1-601): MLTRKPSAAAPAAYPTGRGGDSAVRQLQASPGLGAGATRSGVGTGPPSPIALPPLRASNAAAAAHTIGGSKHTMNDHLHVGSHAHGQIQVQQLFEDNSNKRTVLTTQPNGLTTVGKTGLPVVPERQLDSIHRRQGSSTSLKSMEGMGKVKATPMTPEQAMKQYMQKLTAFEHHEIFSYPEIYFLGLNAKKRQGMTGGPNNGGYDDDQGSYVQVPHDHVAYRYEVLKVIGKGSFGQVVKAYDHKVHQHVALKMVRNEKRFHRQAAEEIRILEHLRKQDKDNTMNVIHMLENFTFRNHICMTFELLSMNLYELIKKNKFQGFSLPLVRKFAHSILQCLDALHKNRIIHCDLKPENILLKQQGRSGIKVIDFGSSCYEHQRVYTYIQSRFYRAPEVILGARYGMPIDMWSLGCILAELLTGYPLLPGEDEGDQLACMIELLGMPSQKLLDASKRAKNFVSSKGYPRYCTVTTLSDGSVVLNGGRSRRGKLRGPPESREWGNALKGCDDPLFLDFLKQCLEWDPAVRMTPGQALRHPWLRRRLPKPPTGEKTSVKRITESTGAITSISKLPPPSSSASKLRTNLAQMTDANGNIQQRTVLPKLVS
Nature of the test: radiometric kinase assay (KinaseProfiler, Eurofins), DYRK2. The note with it: in vitro radiometric kinase assay, tested at 1 nM to 10 000 nM, no pre-incubation; read-out: inhibitory activities (IC50 values) DYRK2. Here is the method: (§1) The compounds were profiled in the radiometric assays (KinaseProfiler, Eurofins).
(§2) All compounds were prepared to 50x final assay concentration in 100% DMSO. This working stock of the compound was added to the assay well as the first component in the reaction, followed by the remaining components as detailed in the general assay protocols below. There was no pre-incubation step between the compound and the kinase prior to initiation of the reaction.
DYRK2 (h) was incubated with 8 mM MOPS pH 7.0, 0.2 mM EDTA, 2 mg/mL casein, 10 mM magnesium acetate and γ-^33P-ATP (specific activity and concentration as required). The reaction was initiated by the addition of the Mg/ATP mix. After incubation for 40 minutes at room temperature, the reaction was stopped by the addition of phosphoric acid to a concentration of 0.5%. An aliquot of the reaction was then spotted onto a filter and washed four times for 4 minutes in 0.425% phosphoric acid and once in methanol prior to drying and scintillation counting.
(§3) Kinase activity data were expressed as the percent remaining kinase activity in tested samples compared to the vehicle (DMSO) reactions. The compounds were tested at the following concentrations: 1 nM, 3 nM, 10 nM, 30 nM, 100 nM, 300 nM, 1000 nM, 3000 nM, and 10 000 nM; IC50 values and curve fits were then obtained.

Test [3] has as its target T3, CDKL3(h) (Homo sapiens, UniProt Q8IVW4).
T3 construct: purchased Eurofins (KinaseProfiler)
In words: radiometric kinase assay (KinaseProfiler, Eurofins), CDKL3. The following applies: in vitro radiometric kinase assay, tested at 1 nM to 10 000 nM, no pre-incubation; read-out: inhibitory activities (IC50 values) CDKL3. How it is done: as §1
Briefly, kinases were diluted in the buffer shown below prior to addition to the reaction mix: • CDKL3, TAF1L: 20 mM Tris/HCl pH 8.5, 0.2 mM EDTA, 0.1% β-mercaptoethanol, 0.01% Brij-35, 5% glycerol, 1 mg/ml BSA; • Haspin: 15 mM MOPS, 0.75 mM EDTA, 0.0075% Brij-35, 3.75% Glycerol, 150 mM NaCl, 0.1% β-mercaptoethanol, 1 mg/mLBSA; • CDKL4, CLK2, PIM1, TRB2: […], 1 mM EDTA, 0.01% Brij-35, 5% Glycerol, 0.1% β-mercaptoethanol, 1 mg/mL BSA.
as §2
CDKL3(h) was incubated with 8 mM MOPS pH 7.0, 0.2 mM EDTA, 250 µM RRRFRPASPLRGPPK (SEQ ID NO. 1), 10 mM magnesium acetate and γ-^33P-ATP (specific activity and concentration as required). The reaction was initiated by the addition of the Mg/ATP mix. After incubation for 120 minutes at room temperature, the reaction was stopped by the addition of phosphoric acid to a concentration of 0.5%. An aliquot of the stopped reaction was spotted onto a filter and washed four times for 4 minutes in 0.425% phosphoric acid and once in methanol prior to drying and scintillation counting.
as §3

One may read the pIC50 as the negative decadic logarithm of the IC50, by convention in mol/L.

pIC50: −log10 of the molar value.

T3 sequence (Q8IVW4 whole entry): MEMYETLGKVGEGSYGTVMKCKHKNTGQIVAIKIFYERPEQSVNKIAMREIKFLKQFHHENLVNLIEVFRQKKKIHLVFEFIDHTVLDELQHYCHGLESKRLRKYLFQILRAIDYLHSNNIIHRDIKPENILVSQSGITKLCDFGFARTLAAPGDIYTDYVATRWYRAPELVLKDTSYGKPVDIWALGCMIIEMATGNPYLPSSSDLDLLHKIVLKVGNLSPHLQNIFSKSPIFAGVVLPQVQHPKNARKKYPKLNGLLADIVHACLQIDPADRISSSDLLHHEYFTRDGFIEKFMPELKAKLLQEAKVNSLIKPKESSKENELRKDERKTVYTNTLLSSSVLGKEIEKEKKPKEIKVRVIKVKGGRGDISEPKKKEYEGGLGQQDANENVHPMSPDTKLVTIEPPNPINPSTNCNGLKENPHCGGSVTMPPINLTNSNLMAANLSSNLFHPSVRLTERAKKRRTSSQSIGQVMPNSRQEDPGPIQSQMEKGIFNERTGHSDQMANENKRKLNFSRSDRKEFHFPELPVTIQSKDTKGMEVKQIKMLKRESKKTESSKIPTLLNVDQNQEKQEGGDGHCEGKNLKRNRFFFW

With `Cn1ccc(Nc2ccc3scc(-c4ccncc4)c3n2)n1` [Preparative Example 99, N-(1-methyl-1H-pyrazol-3-yl)-3-(pyridin-4-yl)thieno[3,2-b]pyridin-5-amine], the pIC50 was 7.00 to 7.70 in test [1], 5.00 to 5.52 in test [2] and 6.30 to 7.00 in test [3].

Turning to `c1cc(-c2csc3ccc(Nc4cc[nH]n4)nc23)ccn1` [Preparative Example 101, N-(1H-pyrazol-3-yl)-3-(pyridin-4-yl)thieno[3,2-b]pyridin-5-amine], the pIC50 in test [1] was 7.00 to 7.70; in test [2] it was 5.52 to 6.30; in test [3], 7.00 to 7.70.

Consider `Fc1cc(-c2ccc3scc(-c4ccccc4)c3n2)cc(F)c1F` [Preparative Example 122, 3-phenyl-5-(3,4,5-trifluorophenyl)thieno[3,2-b]pyridine], for which the pIC50 in test [1], in test [2] and in test [3] was 5.00 to 5.52 throughout.

Regarding `c1ccc(-c2csc3ccc(-c4ccoc4)nc23)cc1` [Preparative Example 123, 5-(furan-3-yl)-3-phenylthieno[3,2-b]pyridine], the pIC50 in test [1], in test [2] and in test [3] was 5.00 to 5.52 throughout.

Take `c1ccc(-c2csc3ccc(-c4cnoc4)nc23)cc1` [Preparative Example 124, 4-(3-phenylthieno[3,2-b]pyridin-5-yl)isoxazole]: the pIC50 in test [1], in test [2] and in test [3] was 5.00 to 5.52 each time.

`Cn1cc(-c2csc3ccc(Oc4ccccc4)nc23)cn1` [Preparative Example 139, 3-(1-methyl-1H-pyrazol-4-yl)-5-phenoxythieno[3,2-b]pyridine]: the pIC50 in test [1] is 6.30 to 7.00; in test [2], 5.00 to 5.52; in test [3], 5.00 to 5.52.

With `Cc1sc2ccc(-c3cnn(C)c3)nc2c1-c1ccncc1` [Preparative Example 142, 2-methyl-5-(1-methyl-1H-pyrazol-4-yl)-3-(pyridin-4-yl)thieno[3,2-b]pyridine], the pIC50 in test [1], in test [2] and in test [3] was 5.52 to 6.30 in each case.

Take `Cc1cc2scc(-c3ccncc3)c2nc1-c1cnn(C)c1` [Preparative Example 150, 6-methyl-5-(1-methyl-1H-pyrazol-4-yl)-3-(pyridin-4-yl)thieno[3,2-b]pyridine]: the pIC50 in test [1] is 5.52 to 6.30; in test [2], 5.00 to 5.52; in test [3], 5.52 to 6.30.

As for `Cc1cc2scc(-c3ccncc3)c2nc1-c1ccn(C)n1` [Preparative Example 151, 6-methyl-5-(1-methyl-1H-pyrazol-3-yl)-3-(pyridin-4-yl)thieno[3,2-b]pyridine], the values for the pIC50 in test [1], in test [2] and in test [3] were 7.00 to 7.70, 5.00 to 5.52 and 5.00 to 5.52, respectively.

With `Cc1cc(-c2cnn(C)c2)nc2c(-c3ccncc3)csc12` [Preparative Example 157, 7-methyl-5-(1-methyl-1H-pyrazol-4-yl)-3-(pyridin-4-yl)thieno[3,2-b]pyridine], the pIC50 was 5.52 to 6.30 in test [1], 5.00 to 5.52 in test [2] and 5.52 to 6.30 in test [3].

Turning to `Cn1cc(-c2cc(Cl)c3scc(-c4ccncc4)c3n2)cn1` [Preparative Example 162, 7-chloro-5-(1-methyl-1H-pyrazol-4-yl)-3-(pyridin-4-yl)thieno[3,2-b]pyridine], the pIC50 was 5.52 to 6.30 in test [1], 5.00 to 5.52 in test [2] and 6.30 to 7.00 in test [3].

Turning to `Cn1ccc(-c2cc(Cl)c3scc(-c4ccncc4)c3n2)n1` [Preparative Example 163, 7-chloro-5-(1-methyl-1H-pyrazol-3-yl)-3-(pyridin-4-yl)thieno[3,2-b]pyridine], the results for the pIC50 in test [1], in test [2] and in test [3] were 6.30 to 7.00, 5.00 to 5.52 and 5.52 to 6.30, respectively.

Consider `COc1cc(-c2ccn(C)n2)nc2c(-c3ccncc3)csc12` [Preparative Example 165, 7-methoxy-5-(1-methyl-1H-pyrazol-3-yl)-3-(pyridin-4-yl)thieno[3,2-b]pyridine], for which the figures for the pIC50 in test [1], in test [2] and in test [3] were 6.30 to 7.00, 5.00 to 5.52 and 5.52 to 6.30, respectively.

(Values after EP4483954A1 (Masarykova Univerzita, priority 2023, dated 2025).)
